Laboratory results published in patent US20210308084A1, “AGENT FOR IMPROVING MUSCLE QUALITY” (AJINOMOTO CO., INC., priority 2018, published 2021).

System: mouse-derived muscle cell line C2C12 (myotube cells)
Experiment: Evaluation of muscle insulin signal (pAkt Ser473/total Akt, Western blotting) in myotubes exposed to palmitic acid (FFA)
Format: cell-based
Settings: FIG. 2; for muscle insulin signal lowered by FFA (phosphorylation index, [(pAkt/Total Akt) Insulin+]/[(pAkt/Total Akt) Insulin-]): amino acid 1 mM added simultaneously with 0.5 mM palmitic acid (FFA), 100 nM insulin stimulation; for action on muscle insulin signal compared with positive control NAC: amino acid 1 mM versus N-acetylcysteine (NAC) 5 mM, 0.5 mM FFA
Protocol: Using mouse C3H skeletal muscle myoblast (C2C12 cell) (DS Pharma Biomedical Co., Ltd.), the evaluation was performed. Induction of differentiation into myotube cells (Myotubes) was performed using cells with myoblast passage number of 12 to 18. Myoblasts were seeded in a 12-well (diameter=3 cm) plate at 0.3×10^5 to 0.5×10^5/well. After confirmation that the cell proliferation state reached 90% confluent, the medium was replaced with DMEM culture medium supplemented with 2(w/v) % horse serum (HS) and 1(w/v) % penicillin-streptomycin-[…](w/v) % HS, 1(w/v) % […](w/v) % Gln/DMEM), and differentiation into myotube cells (Myotubes) was induced. After confirmation of differentiation into myotube cells (Myotubes), a muscle insulin signal evaluation system was constructed, and the action of each of isoleucine, glycine, and cystine was evaluated using the constructed evaluation system. […] After culturing overnight, the cells were preincubated for about 2 hr in DMEM (BSA/FFA free) with an amino acid concentration of 1/5, stimulated by incubation (15 min-20 min) with 100 nM insulin, and the myotube cells were collected (each n=3). From the collected cells, proteins were extracted with RIPA (Radio-Immunoprecipitation Assay) buffer (Cell Signaling Technologies Inc.), adjusted to a final protein concentration of 0.5 mg/mL, and used as samples. The expression levels of phosphorylated Akt (pAkt) (Ser473) and [NT] in the above-mentioned sample were quantified by the Western blotting (WB) method using anti-phosphorylated Akt (pAkt) (Ser473) antibody (#92715; Cell Signaling Technologies Inc.) and anti-[NT] antibody (#9272S; Cell Signaling Technologies Inc.). The expression level of each protein was quantified using Western blot-chemiluminescent imaging system (Fusion FX) (Vilber-Lourmat Inc.). Each amino acid was added simultaneously with FFA, and the muscle quality-improving effect was examined with the recovery of the muscle insulin signal as an index. The final concentration of each amino acid was adjusted to 1 mM. As a positive control, an antioxidative active substance N-acetylcysteine (NAC) 5 mM was used. From the measurement results of the expression levels of phosphorylated Akt (Ser473) and total Akt, the ratio of phosphorylated Akt and total Akt with insulin stimulation to the ratio of phosphorylated Akt and total Akt without insulin stimulation [(pAkt/Total Akt) Insulin+]/[(pAkt/Total Akt) Insulin-] was determined and shown in FIG. 2 as the phosphorylation index (stimulation index). In FIG. 2, the phosphorylation index is shown as mean±standard error for each sample.

SMILES	muscle insulin signal lowered by FFA (phosphorylation index, [(pAkt/Total Akt) Insulin+]/[(pAkt/Total Akt) Insulin-])	action on muscle insulin signal compared with positive control NAC
N[C@@H](CSSC[C@H](N)C(=O)O)C(=O)O [cystine, L-cystine]	restore the muscle insulin signal lowered by FFA	equal to or higher than that of NAC
NCC(=O)O [glycine]	restore the muscle insulin signal lowered by FFA	equal to or higher than that of NAC
CC[C@H](C)[C@H](N)C(=O)O [isoleucine, L-isoleucine]	restore the muscle insulin signal lowered by FFA	equal to or higher than that of NAC
